# Biological target: T1, human leukocyte elastase (Homo sapiens, UniProt P08246)
# T1 sequence (P08246 30-267): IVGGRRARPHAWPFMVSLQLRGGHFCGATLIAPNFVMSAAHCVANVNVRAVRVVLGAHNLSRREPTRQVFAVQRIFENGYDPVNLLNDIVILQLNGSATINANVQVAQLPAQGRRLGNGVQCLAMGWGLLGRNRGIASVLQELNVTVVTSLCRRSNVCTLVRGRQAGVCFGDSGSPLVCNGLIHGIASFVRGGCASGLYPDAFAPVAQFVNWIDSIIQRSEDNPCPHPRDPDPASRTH
# Experiment: Elastase inhibition activity (fluorogenic substrate N-methoxy succinyl-L-alanyl-L-alanyl-L-prolyl-L-valine 4-methylcoumaryl-7-amide)
# Format: biochemical
# Conditions: 0.2M tris buffer pH8.5, 1M sodium chloride, 40µM substrate, 37° C, 20 minutes incubation; read-out: IC₅₀
# Method: The inhibition activities to human leukocyte elastase were determined as follows: Each 1µl of DMSO solution of the compound and DMSO (for reference) were added to each 250µl of 0.2M tris buffer solutions (pH8.5) containing 40µM N-methoxy succinyl-L-alanyl-L-alanyl-L-prolyl-L-valine 4-methylcoumaryl-7-amide and 1M sodium chloride, and the mixtures were pre-incubated at 37° C for three minutes. Then 50µl of 0.2M tris buffer solutions (pH8.5) containing 0.2µg/ml human leukocyte elastase were added to the mixtures and the mixtures were incubated at 37° C for 20 minutes. Each 1ml of 2M acetic acid aqueous solutions were added to the mixture and the reactions were stopped and then fluorescences of the supernatants were measured and the activities were calculated. As the results, IC₅₀ values were as follows: the compound 6 = 0.78µM, the compound 4 = 6.32µM, the compound 1 = 8.48µM and the compound 5 = 9.94µM.
row,Structure (SMILES),IC50 [µM]
1,"CCC[C@H](NC(=O)[C@@H]1CCCN1C(=O)[C@H](CC(C)C)NC(C)=O)C(=O)C(=O)Cc1ccccc1 [Compound 1, (4S)-4-(N-acetyl-L-leucyl-L-prolyl)amino-1-phenyl-2,3-heptanedione]",8.48
2,"CCC[C@H](NC(=O)[C@@H]1CCCN1C(=O)[C@H](CC(C)C)NC(=O)OCc1ccccc1)C(=O)C(=O)CC1CCCCC1 [Compound 4, (4S)-4-(N-benzyloxycarbonyl-L-leucyl-L-prolyl)amino-1-cyclohexyl-2,3-heptanedione]",6.32
3,"CCC[C@H](NC(=O)[C@@H]1CCCN1C(=O)[C@H](CC(C)C)NC(=O)OCc1ccccc1)C(=O)C(=O)CCC1CCCCC1 [Compound 5, (5S)-5-(N-benzyloxycarbonyl-L-leucyl-L-prolyl)amino-1-cyclohexyl-3,4-octanedione]",9.94
4,"CCC[C@H](NC(=O)[C@@H]1CCCN1C(=O)[C@H](CC(C)C)NC(=O)OCc1ccccc1)C(=O)C(=O)Cc1ccccc1 [Compound 6, (4S)-4-(N-benzyloxycarbonyl-L-leucyl-L-prolyl)amino-1-phenyl-2,3-heptanedione]",0.78

# — patent EP0639585A1, “Elastase inhibitor” (BANYU PHARMACEUTICAL CO., LTD., priority 1993, dated 1995)
